Values joined by “and” are separate entries in the source; they are usually repeats but may differ in a detail not shown here. Equal entries are not always repeated. Where two headings read alike, the source gives them in different places.
Assays:
cells = conditions: all cells tested; cited from earlier work
[1] = type: in vivo; conditions: mouse; for concentration at 1 week: male, C57BL/6N, oral; for Concentration in brain: 1 week
[2] = Stability of 3-MoSA in mouse brain homogenate to freezing; type: physicochemical; conditions: storage 7 months at −80°C
[3] = type: in vivo; conditions: mouse; for Tmax / MRT inf: male, C57BL/6N, ip
[4] = single i.p. 200 mg/kg, plasma, 200 mg/kg

- concentration at 1 week ([1]; brain, 3 g/l, Concentration in brain, drink at 3 g/l): 18000 ng/g
- concentration at 1 week ([1]; brain, 5 g/l, Concentration in brain, drink at 5 g/l): 25000 ng/g
- concentration at 1 week ([1]; brain, 7 g/l, Concentration in brain, drink at 7 g/l): 38000 ng/g
- concentration at 1 week ([1]; brain, 10 g/l, Concentration in brain, drink at 10 g/l): 82000 ng/g
- concentration at 1 week ([1]; heart, 3 g/l, Concentration in heart, drink at 3 g/l): 23900 ± 6500 ng/g
- concentration at 1 week ([1]; heart, 5 g/l, Concentration in heart, drink at 5 g/l): 46300 ± 6000 ng/g
- concentration at 1 week ([1]; heart, 7 g/l, Concentration in heart, drink at 7 g/l): 53500 ± 8100 ng/g
- concentration at 1 week ([1]; heart, 10 g/l, Concentration in heart, drink at 10 g/l): 60200 ± 8700 ng/g
- concentration at 1 week ([1]; kidney, 3 g/l, Concentration in kidney, drink at 3 g/l): 91100 ± 16300 ng/g
- concentration at 1 week ([1]; kidney, 5 g/l, Concentration in kidney, drink at 5 g/l): 155000 ± 20300 ng/g
- concentration at 1 week ([1]; kidney, 7 g/l, Concentration in kidney, drink at 7 g/l): 210000 ± 13100 ng/g
- concentration at 1 week ([1]; kidney, 10 g/l, Concentration in kidney, drink at 10 g/l): 212000 ± 17400 ng/g
- concentration at 1 week ([1]; liver, 3 g/l, Concentration in liver, drink at 3 g/l): 74100 ± 11700 ng/g
- concentration at 1 week ([1]; liver, 5 g/l, Concentration in liver, drink at 5 g/l): 204000 ± 22000 ng/g
- concentration at 1 week ([1]; liver, 7 g/l, Concentration in liver, drink at 7 g/l): 252000 ± 24300 ng/g
- concentration at 1 week ([1]; liver, 10 g/l, Concentration in liver, drink at 10 g/l): 259000 ± 26200 ng/g
- concentration at 1 week ([1]; plasma, 3 g/l, Concentration in plasma, drink at 3 g/l): 4000 ± 1000 ng/mL
- concentration at 1 week ([1]; plasma, 5 g/l, Concentration in plasma, drink at 5 g/l): 5400 ± 1100 ng/mL
- concentration at 1 week ([1]; plasma, 7 g/l, Concentration in plasma, drink at 7 g/l): 10800 ± 1600 ng/mL
- concentration at 1 week ([1]; plasma, 10 g/l, Concentration in plasma, drink at 10 g/l): 11500 ± 1200 ng/mL
- concentration at 1 week ([1]; spleen, 3 g/l, Concentration in spleen, drink at 3 g/l): 46600 ± 7900 ng/g
- concentration at 1 week ([1]; spleen, 5 g/l, Concentration in spleen, drink at 5 g/l): 82200 ± 7200 ng/g
- concentration at 1 week ([1]; spleen, 7 g/l, Concentration in spleen, drink at 7 g/l): 185000 ± 11600 ng/g
- concentration at 1 week ([1]; spleen, 10 g/l, Concentration in spleen, drink at 10 g/l): 192000 ± 23600 ng/g
- Concentration in brain ([1]; drink at 3 g/l): 18.1 ± 4.4 µg of 3-MoSA/g of tissue
- Concentration in brain ([1]; drink at 5 g/l): 24.7 ± 3.1 µg of 3-MoSA/g of tissue
- Concentration in brain ([1]; drink at 7 g/l): 37.6 ± 0.8 µg of 3-MoSA/g of tissue
- Concentration in brain ([1]; drink at 10 g/l): 82.3 ± 24.5 µg of 3-MoSA/g of tissue
- Stability: fraction recovered after storage [2]: 77% and 76.87%
- Tmax ([3]; brain, 200 mg/kg): 15 min
- MRT inf ([3]; heart, 200 mg/kg): 54 min
- Tmax ([3]; heart, 200 mg/kg): 15 min
- MRT inf ([3]; kidney, 200 mg/kg): 54 min
- Tmax ([3]; kidney, 200 mg/kg): 30 min
- MRT inf ([3]; liver, 200 mg/kg): 60 min
- Tmax ([3]; liver, 200 mg/kg): 15 min
- Tmax ([3]; plasma, 200 mg/kg): 30 min
- MRT inf ([3]; spleen, 200 mg/kg): 60 min
- Tmax ([3]; spleen, 200 mg/kg): 15 min
- Time to distribution to heart, spleen, liver and kidneys after administration ([3]; single i.p. 200 mg/kg): 15 to 30 min
- Time of maximum brain concentration (CBmax) ([3]; single i.p. 200 mg/kg, brain): 15 min
- Cmax, brain ([3]; single i.p. 200 mg/kg, brain, 200 mg/kg): 1395 ± 207 µg/g and 1395.3 ± 207.0 µg/g
- AUC (0-t), heart ([3]; single i.p. 200 mg/kg, heart): 546.7 ± 52.4 µg·h/g
- AUC (0-t), kidney ([3]; single i.p. 200 mg/kg, kidney): 1981.6 ± 174.0 µg·h/g
- Cmax, kidney ([3]; single i.p. 200 mg/kg, kidney): 1703.1 ± 146.1 µg/g
- AUC (0-t), liver ([3]; single i.p. 200 mg/kg, liver): 540.4 ± 37.1 µg·h/g
- Cmax, liver ([3]; single i.p. 200 mg/kg, liver): 880.4 ± 122.3 µg/g
- AUC (0-t), plasma [3, 4]: 361.5 ± 41.6 µg·h/mL
- CL/F (total body clearance) [3, 4]: 544.1 L/h/kg
- Cmax, plasma [3, 4]: 342600 ± 56400 ng/mL
- Elimination t1/2, plasma [3, 4]: 36 min
- V/F (apparent volume of distribution, Vd/F) [3, 4]: 486.4 L/kg
- AUC (0-t), spleen ([3]; single i.p. 200 mg/kg, spleen): 734.5 ± 60.7 µg·h/g
- Time after injection up to which 3-MoSA was detectable in tissue ([3]; single i.p. 200 mg/kg, tissue): up to 4 h
Structure (SMILES): COc1cccc(CN)c1O [3-MoSA, 3-methoxy-2-hydroxybenzylamine]
- Cytotoxicity (cells): not cytotoxic
- Drug accumulation over time in organs ([3]; single i.p. 200 mg/kg, organs studied): no evidence of specific drug accumulation over time
